Laboratory results as given in patent publication US6013628A, “Method for treating conditions of the eye using polypeptides” (Regents of the University of Minnesota, priority 1995, dated 2000).
No end group written: not given here.

How the values were obtained:
[1] = tested on: rabbit conjunctival fibroblasts; assay: Conjunctival fibroblast proliferation, tritiated thymidine assay; type: cell-based; conditions: for Thymidine uptake: day 4, no drug control 8537 cpm
From the text: The failure of gluacoma treatment by filtration surgery is most often caused by scarring. Scarring requires fibroblast proliferation and fibrosis of the subconjunctive space. Proliferation of rabbit conjunctival fibroblasts was studied using the tritiated thymidine assay, which serves as an in vitro model of fibroblast proliferation in the rabbit eye (see Invest. Ophthalmol. Vis. Sci., 31, 1848-1855 (1990)). The ability of synthetic polypeptides derived from ECM molecules to inhibit conjuntival fibroblast proliferation was examined in this model.
Rabbit conjunctival fibroblasts were plated into 96-well microtiter plates at 1000 cells/well in 200 microliters of standard fibroblast culture media. Standard fibroblast culture media include Eagle's minimal essential medium containing 15% fetal bovine serum, penicillin G 100 IU/ml, streptomycin 100 μg/ml, and amphotericin B 0.25 μg/ml. Hep-II was added to the wells in concentrations ranging from 1 μg/ml to 1000 μg/ml after removing an equal volume of media to maintain 200 microliters/well. The peptide was used in concentrations of 1, 3, 7, 10, 25, 50, 100, 200, 300, 400, 500, 600, 800 and 1000 microgram/ml (experiments 1-14, respectively in FIG. 26). The tissue culture plates were incubated at 37° C. in a humidified atmosphere of 5% carbon dioxide. Two separate sets experiments were conducted. Each set of experiments was done in replicates of four. In the first set of experiments, tritiated thymidine was added 22 hours prior to each harvesting on days 4, 5, and 8. In the second set of experiments, tritiated thymidine was added 22 hours prior to each harvesting on days 4, 5, and 6. Wells with vehicle but no test compound served as negative controls (experiment #15) and cells with mitomycin-C at 100 μg/ml served as positive controls (experiment #16).

[2] = tested on: filtration surgery in rabbits; assay: Rabbit model of glaucoma filtration surgery failure; type: in vivo; set-up: IOP: unit not given here
Experimental: The rabbit model for filtration surgery is described by Bergstrom TJ, and Skuta GL. et al. in Arch. Ophthalmol, 109(12):1725-30, 1991. Two New Zealand white albino rabbits were used in the study. All animals were treated according to ARVO Animal Use Guidelines. All eyes were examined prior to initiation of a study and only clinically normal animals were used.
All the rabbits underwent preoperative examination and the intraocular pressure (IOP) was measured by pneumatonometry (PneumaTonometer, Digilab Model 30R, Cambridge, Mass.). The rabbits were anesthetized using an intramuscular injection of a mix of ketamine (30 mg/kg) and xylazine (5 mg/kg). A posterior lip sclerectomy was then performed on both eyes of each animal during the same period of anesthesia. […] The superotemporal conjuctiva and Tenon's capsule was incised near the fornix, and the dissection was performed anteriorly to the limbus. The anterior chamber was entered at the filtration site and a 1-mm by 3-mm block of limbal scleral tissue was excised from the posterior lip of the wound with the Kelly-Descemet punch. A peripheral iridectomy was then performed with Vannas scissors and curved jeweler's forceps. Hand-held thermal cautery was used as needed to provide hemostasis. The conjunctiva was closed with a running 10-0 nylon suture. The right eye received subconjunctival injection of the Hep-II dissolved in 0.15 ml distilled water at the end of the filtration surgery and the left eye, which served as the control, received an equal volume of distilled water. These and each of the subsequent injections were made into the area of the bleb. No prophylactic antibiotics, cycloplegic, or corticosteroid was applied to either eye intraoperatively or postoperatively. Postoperative evaluation included examination with a portable slit-lamp biomicroscope, evaluation of the filtering bleb and intraocular pressure measurements obtained with a pneumatonometer. At the end of the study the animals were sacrificed while under anesthesia with an intravenous injection of 1 cc of euthanasia solution.
The results of filtration surgery were evaluated by monitoring intraocular pressures and visual inspection of scarring and vascularization. The ability of ability of a synthetic polypeptide to prolong the effect of glaucoma treatment by filtration surgery was examined using the rabbit model. The right eye was treated with subconjunctival injection of 1 milligram of Hep-II dissolved in 0.15 ml of distilled water at the end of filtration surgery and every other day for a total of eight injections. The left eye served as the control and received an equal volume of distilled water on those days. The intraocular pressures (IOP) were checked using a pneumatonometer every day until day 9 and roughly every other day until day 28 (Table V and FIG. 27). […] Control eyes reached pre-operative pressures between about day 4 and day 9.

Question: How did the Thymidine uptake ([1]; 800 microgram/ml) turn out when “LAGSCLARFSTM [Hep-II, Leu-Ala-Gly-Ser-Cys-Leu-Ala-Arg-Phe-Ser-Thr-Met]” was run?
Answer: Its Thymidine uptake is 580 cpm.

Question: And the Thymidine uptake ([1]; 1000 microgram/ml)?
Answer: Its Thymidine uptake is 589 cpm.

Question: And the “Concentration effective in controlling fibroblast proliferation in vitro” value ([1]; similar to mitomycin-C)?
Answer: Its value is 800-1000 microgram/ml.

Question: And the “IOP in treated eyes versus control eyes” value ([2]; 1 milligram subconjunctival every other day, eight injections, 28 days, p<0.001)?
Answer: The value was “lower than the control eyes”.

Question: And the IOP ([2]; Rabbit #3 OD (1 milligram Hep-II subconjunctival, eight injections), Post op #1, Pre op 32, control OS 22)?
Answer: Its IOP is 24.

Question: And the IOP ([2]; Rabbit #3 OD (1 milligram Hep-II subconjunctival, eight injections), Post op #2, Pre op 32, control OS 31)?
Answer: The IOP was 30.

Question: And the IOP ([2]; Rabbit #3 OD (1 milligram Hep-II subconjunctival, eight injections), Post op #3, Pre op 32, control OS 30)?
Answer: Its IOP is 25.

Question: What about the IOP ([2]; Rabbit #3 OD (1 milligram Hep-II subconjunctival, eight injections), Post op #4, Pre op 32, control OS 32) of the same sequence?
Answer: Its IOP is 23.

Question: And the IOP ([2]; Rabbit #3 OD (1 milligram Hep-II subconjunctival, eight injections), Post op #5, Pre op 32, control OS 32)?
Answer: The IOP was 22.

Question: And the IOP ([2]; Rabbit #3 OD (1 milligram Hep-II subconjunctival, eight injections), Post op #6, Pre op 32, control OS 32)?
Answer: The IOP was 21.

Question: What about the IOP ([2]; Rabbit #3 OD (1 milligram Hep-II subconjunctival, eight injections), Post op #7, Pre op 32, control OS 30) of the same sequence?
Answer: The IOP was 21.

Question: What about the IOP ([2]; Rabbit #3 OD (1 milligram Hep-II subconjunctival, eight injections), Post op #8, Pre op 32, control OS 31) of the same sequence?
Answer: Its IOP is 24.

Question: And the IOP ([2]; Rabbit #3 OD (1 milligram Hep-II subconjunctival, eight injections), Post op #9, Pre op 32, control OS 30)?
Answer: The IOP was 22.

Question: What about the IOP ([2]; Rabbit #3 OD (1 milligram Hep-II subconjunctival, eight injections), Post op #13, Pre op 32, control OS 30) of the same sequence?
Answer: The IOP was 24.

Question: And the IOP ([2]; Rabbit #3 OD (1 milligram Hep-II subconjunctival, eight injections), Post op #14, Pre op 32, control OS 28)?
Answer: The IOP was 18.

Question: And the IOP ([2]; Rabbit #3 OD (1 milligram Hep-II subconjunctival, eight injections), Post op #15, Pre op 32, control OS 33)?
Answer: Its IOP is 25.

Question: And the IOP ([2]; Rabbit #3 OD (1 milligram Hep-II subconjunctival, eight injections), Post op #16, Pre op 32, control OS 35)?
Answer: Its IOP is 27.

Question: What about the IOP ([2]; Rabbit #3 OD (1 milligram Hep-II subconjunctival, eight injections), Post op #18, Pre op 32, control OS 34) of the same sequence?
Answer: The IOP was 26.

Question: What about the IOP ([2]; Rabbit #3 OD (1 milligram Hep-II subconjunctival, eight injections), Post op #20, Pre op 32, control OS 32) of the same sequence?
Answer: The IOP was 25.

Question: And the IOP ([2]; Rabbit #3 OD (1 milligram Hep-II subconjunctival, eight injections), Post op #21, Pre op 32, control OS 32)?
Answer: Its IOP is 28.

Question: And the IOP ([2]; Rabbit #3 OD (1 milligram Hep-II subconjunctival, eight injections), Post op #24, Pre op 32, control OS 32)?
Answer: Its IOP is 26.

Question: And the IOP ([2]; Rabbit #3 OD (1 milligram Hep-II subconjunctival, eight injections), Post op #27, Pre op 32, control OS 34)?
Answer: Its IOP is 33.

Question: And the IOP ([2]; Rabbit #3 OD (1 milligram Hep-II subconjunctival, eight injections), Post op #28, Pre op 32, control OS 35)?
Answer: The IOP was 33.

Question: What about the IOP ([2]; Rabbit #4 OD (1 milligram Hep-II subconjunctival, eight injections), Post op #1, Pre op 34, control OS 25) of the same sequence?
Answer: The IOP was 24.

Question: And the IOP ([2]; Rabbit #4 OD (1 milligram Hep-II subconjunctival, eight injections), Post op #2, Pre op 34, control OS 25)?
Answer: The IOP was 30.

Question: What about the IOP ([2]; Rabbit #4 OD (1 milligram Hep-II subconjunctival, eight injections), Post op #3, Pre op 34, control OS 20) of the same sequence?
Answer: Its IOP is 22.

Question: And the IOP ([2]; Rabbit #4 OD (1 milligram Hep-II subconjunctival, eight injections), Post op #4, Pre op 34, control OS 25)?
Answer: The IOP was 22.

Question: And the IOP ([2]; Rabbit #4 OD (1 milligram Hep-II subconjunctival, eight injections), Post op #5, Pre op 34, control OS 30)?
Answer: Its IOP is 24.

Question: What about the IOP ([2]; Rabbit #4 OD (1 milligram Hep-II subconjunctival, eight injections), Post op #6, Pre op 34, control OS 31) of the same sequence?
Answer: The IOP was 23.

Question: What about the IOP ([2]; Rabbit #4 OD (1 milligram Hep-II subconjunctival, eight injections), Post op #7, Pre op 34, control OS 30) of the same sequence?
Answer: Its IOP is 23.

Question: And the IOP ([2]; Rabbit #4 OD (1 milligram Hep-II subconjunctival, eight injections), Post op #8, Pre op 34, control OS 32)?
Answer: Its IOP is 25.

Question: And the IOP ([2]; Rabbit #4 OD (1 milligram Hep-II subconjunctival, eight injections), Post op #9, Pre op 34, control OS 37)?
Answer: Its IOP is 26.

Question: And the IOP ([2]; Rabbit #4 OD (1 milligram Hep-II subconjunctival, eight injections), Post op #13, Pre op 34, control OS 32)?
Answer: The IOP was 27.

Question: What about the IOP ([2]; Rabbit #4 OD (1 milligram Hep-II subconjunctival, eight injections), Post op #14, Pre op 34, control OS 27) of the same sequence?
Answer: The IOP was 20.

Question: What about the IOP ([2]; Rabbit #4 OD (1 milligram Hep-II subconjunctival, eight injections), Post op #15, Pre op 34, control OS 35) of the same sequence?
Answer: The IOP was 25.

Question: And the IOP ([2]; Rabbit #4 OD (1 milligram Hep-II subconjunctival, eight injections), Post op #16, Pre op 34, control OS 37)?
Answer: The IOP was 28.

Question: And the IOP ([2]; Rabbit #4 OD (1 milligram Hep-II subconjunctival, eight injections), Post op #18, Pre op 34, control OS 35)?
Answer: The IOP was 27.

Question: What about the IOP ([2]; Rabbit #4 OD (1 milligram Hep-II subconjunctival, eight injections), Post op #20, Pre op 34, control OS 34) of the same sequence?
Answer: Its IOP is 27.

Question: What about the IOP ([2]; Rabbit #4 OD (1 milligram Hep-II subconjunctival, eight injections), Post op #21, Pre op 34, control OS 40) of the same sequence?
Answer: Its IOP is 32.

Question: What about the IOP ([2]; Rabbit #4 OD (1 milligram Hep-II subconjunctival, eight injections), Post op #24, Pre op 34, control OS 34) of the same sequence?
Answer: Its IOP is 28.

Question: What about the IOP ([2]; Rabbit #4 OD (1 milligram Hep-II subconjunctival, eight injections), Post op #27, Pre op 34, control OS 36) of the same sequence?
Answer: Its IOP is 33.

Question: What about the IOP ([2]; Rabbit #4 OD (1 milligram Hep-II subconjunctival, eight injections), Post op #28, Pre op 34, control OS 36) of the same sequence?
Answer: Its IOP is 35.

Question: What about the “Effect on duration of filtration surgery effect” value ([2]; rabbits in vivo) of the same sequence?
Answer: The value was “prolongs the effect of filtration surgery”.

Question: What about the “Day until which blebs remained avascular (appeared functional)” value ([2]; treated eyes, control eyes until day 10) of the same sequence?
Answer: Its value is 18 days.
